Experiments:
Format in all cases: cell-based
Details in all cases: paper strips on potato dextrose agar, 25° C., 24 hours
Fusarium moniloforma = assay: Mycelial inhibition test, Fusarium moniloforma
Rhizoctonia solani = assay: Mycelial inhibition test, Rhizoctonia solani
Aspergillus niger = assay: Mycelial inhibition test, Aspergillus niger

Structure (SMILES) | Mycelia Inhibition, micrograms/cm for 99% control, F (Fusarium moniloforma) [micrograms/cm] | Mycelia Inhibition, micrograms/cm for 99% control, R (Rhizoctonia solani) [micrograms/cm] | Mycelia Inhibition, micrograms/cm for 99% control, A (Aspergillus niger) [micrograms/cm]
CN(SC(Cl)(Cl)Cl)S(=O)(=O)C(Cl)=C(Cl)Cl [Compound 1, N-methyl-N-(trichloromethylthio)trichlorovinylsulfonamide] | 1.7 | 0.18 | 0.42
CC(C)N(SC(Cl)(Cl)Cl)S(=O)(=O)C(Cl)=C(Cl)Cl [Compound 4] | > 1.7 | 0.19 | 0.68
O=S(=O)(C(Cl)=C(Cl)Cl)N(SC(Cl)(Cl)Cl)C1CCCCC1 [Compound 5] | > 1.7 | 1.1 | > 1.7
O=S(=O)(C(Cl)=C(Cl)Cl)N(SC(Cl)(Cl)Cl)c1ccccc1 [Compound 7, N-phenyl-N-(trichloromethylthio)trichlorovinylsulfonamide] | > 1.7 | > 1.7 | > 1.5
Cc1cccc(C)c1N(SC(Cl)(Cl)Cl)S(=O)(=O)C(Cl)=C(Cl)Cl [Compound 9] | > 1.7 | 0.33 | > 1.7
Cc1ccc(N(SC(Cl)(Cl)Cl)S(=O)(=O)C(Cl)=C(Cl)Cl)cc1 [Compound 11] | > 1.7 | > 1.7 | > 1.7
CNS(=O)(=O)C(Cl)=C(Cl)Cl [Compound 13] | > 1.7 | > 1.7 | > 1.7
CC(C)NS(=O)(=O)C(Cl)=C(Cl)Cl [Compound 14] | > 1.7 | > 1.7 | > 1.7
O=S(=O)(NC1CCCCC1)C(Cl)=C(Cl)Cl [Compound 15] | > 1.7 | > 1.7 | > 1.7
O=S(=O)(Nc1ccccc1)C(Cl)=C(Cl)Cl [Compound 16] | > 1.7 | > 1.7 | > 1.7
Cc1cccc(C)c1NS(=O)(=O)C(Cl)=C(Cl)Cl [Compound 17] | > 1.7 | > 1.7 | > 1.7
Cc1ccc(NS(=O)(=O)C(Cl)=C(Cl)Cl)cc1 [Compound 18] | > 1.7 | > 1.7 | > 1.7
O=S(=O)(Nc1ccc(Cl)cc1)C(Cl)=C(Cl)Cl [Compound 19, N-(p-chlorophenyl)trichlorovinylsulfonamide] | > 1.7 | > 1.7 | > 1.7
Cc1cc(Sc2ccccc2)ccc1NS(=O)(=O)C(Cl)=C(Cl)Cl [Compound 20] | > 1.7 | > 1.7 | > 1.7
O=S(=O)(Nc1ccc(Cl)c(Cl)c1)C(Cl)=C(Cl)Cl [Compound 21] | > 1.7 | > 1.7 | > 1.7

— patent US4160845A, “Fungicidal N-(haloaliphaticthio)halovinylsulfonamides” (Chevron Research Company, priority 1976, dated 1979)
